Experimental data from the OligoGym collection.
Where “and” joins values, the source holds several entries; their conditions need not be identical. Identical values can stand only once. After the bases stand the sugars from the 5' end (letter, count) and the backbone: PS all phosphorothioate, else s phosphorothioate and o phosphodiester by linkage. Methylation of C is not given here. e = 2'-O-(2-methoxyethyl) (MOE); k = constrained ethyl (cEt); d = 2'-deoxy (DNA)

Target: SOD1
Conditions: ASO

Sequence: CGATCCCAATTACACCA (sugars e2 k2 d8 k2 e3, PS)
- target mRNA inhibition (HepG2, 4 µM): 57%

Sequence: GATTACAGTGTTTAATG (sugars e2 k2 d8 k2 e3, PS)
- target mRNA inhibition (HepG2, 5 µM): 54%

Sequence: GGTTTTTATTCACAGGC (sugars e2 k2 d9 k2 e2, PS)
- target mRNA inhibition (HepG2, 4 µM): 45%
- target mRNA inhibition (HepG2, 5 µM): 57%
- target mRNA inhibition (HepG2, 12 µM): 51%

Sequence: TACATCCAAGGGAATGT (sugars e3 k2 d7 k2 e3, PS)
- target mRNA inhibition (HepG2, 3 µM): 30%

Sequence: GGATACATTTCTACAGC (sugars e4 k1 d8 k1 e3, linkages s1 o3 s9 o1 s2)
- target mRNA inhibition (A431, 0.062 µM): 8%
- target mRNA inhibition (A431, 0.185 µM): 7%
- target mRNA inhibition (A431, 0.556 µM): 30%
- target mRNA inhibition (A431, 1.667 µM): 33%
- target mRNA inhibition (A431, 5 µM): 66%
- target mRNA inhibition (A431, 15 µM): 59%
- target mRNA inhibition (SH-SY5Y, 0.062 µM): 9%
- target mRNA inhibition (SH-SY5Y, 0.185 µM): 0%
- target mRNA inhibition (SH-SY5Y, 0.556 µM): 12%
- target mRNA inhibition (SH-SY5Y, 1.667 µM): 33%
- target mRNA inhibition (SH-SY5Y, 5 µM): 65%
- target mRNA inhibition (SH-SY5Y, 15 µM): 76%

Sequence: GTTTTATAAAACTATAC (sugars e3 k2 d7 k2 e3, PS)
- target mRNA inhibition (HepG2, 3 µM): 22%

Sequence: GCTAGCAGGATAACAGA (sugars e2 k2 d9 k2 e2, PS)
- target mRNA inhibition (HepG2, 4 µM): 43%

Sequence: ACAGCTAGCAGGATAAC (sugars e3 k2 d7 k2 e3, PS)
- target mRNA inhibition (HepG2, 3 µM): 20%

Sequence: TTCCACCTTTGCCCAAG (sugars e3 k2 d7 k2 e3, PS)
- target mRNA inhibition (HepG2, 3 µM): 87%

Sequence: ATCCAAGGGAATGTTTA (sugars e3 k2 d7 k2 e3, PS)
- target mRNA inhibition (HepG2, 3 µM): 42%

Sequence: CGCCCTTCAGCACGCACACG (sugars e5 d10 e5, PS)
- target mRNA inhibition (HepG2, 0.1875 µM): 0%
- target mRNA inhibition (HepG2, 0.75 µM): 2%
- target mRNA inhibition (HepG2, 3 µM): 28%
- target mRNA inhibition (HepG2, 4 µM): 23%
- target mRNA inhibition (HepG2, 12 µM): 92%

Sequence: AATGTTTATCAGGATAC (sugars e2 k2 d8 k2 e3, PS)
- target mRNA inhibition (HepG2, 0.1875 µM): 51%
- target mRNA inhibition (HepG2, 0.75 µM): 79%
- target mRNA inhibition (HepG2, 3 µM): 92%
- target mRNA inhibition (HepG2, 4 µM): 89%
- target mRNA inhibition (HepG2, 12 µM): 96%

Sequence: GGAATCCATGCAGGCCT (sugars e3 k2 d7 k2 e3, PS)
- target mRNA inhibition (HepG2, 3 µM): 7%

Sequence: TTATCAGGATACATTTC (sugars e2 k2 d8 k2 e3, PS)
- target mRNA inhibition (HepG2, 4 µM): 57%

Sequence: CAGTCCTTTAATGCTTCCCC (sugars e5 d10 e5, PS)
- target mRNA inhibition (HepG2, 5 µM): 51% and 40%

Sequence: TGTTTAATGTTTATCA (sugars ekddddddddekekee, linkages s1 o1 s8 o3 s2)
- target mRNA inhibition (A431, 0.12 µM): 0%
- target mRNA inhibition (A431, 0.6 µM): 13%
- target mRNA inhibition (A431, 3 µM): 31%
- target mRNA inhibition (A431, 15 µM): 49%

Sequence: GTCGCCCTTCAGCACGCA (sugars e5 d8 e5, linkages s1 o3 s9 o2 s2)
- target mRNA inhibition (A431, 0.062 µM): 10%
- target mRNA inhibition (A431, 0.185 µM): 11%
- target mRNA inhibition (A431, 0.556 µM): 11%
- target mRNA inhibition (A431, 1.667 µM): 3%
- target mRNA inhibition (A431, 5 µM): 18%
- target mRNA inhibition (A431, 15 µM): 4%
- target mRNA inhibition (SH-SY5Y, 0.062 µM): 13%
- target mRNA inhibition (SH-SY5Y, 0.185 µM): 4%
- target mRNA inhibition (SH-SY5Y, 0.556 µM): 5%
- target mRNA inhibition (SH-SY5Y, 1.667 µM): 40%
- target mRNA inhibition (SH-SY5Y, 5 µM): 52%
- target mRNA inhibition (SH-SY5Y, 15 µM): 77%

Sequence: GTGCCATACAGGGTTTT (sugars e2 k2 d8 k2 e3, PS)
- target mRNA inhibition (HepG2, 5 µM): 20%

Sequence: ATGTTTATCAGGATACA (sugars eeeeddddddddkekee, linkages s1 o2 s9 o2 s2)
- target mRNA inhibition (A431, 0.062 µM): 12%
- target mRNA inhibition (A431, 0.185 µM): 19%
- target mRNA inhibition (A431, 0.556 µM): 29%
- target mRNA inhibition (A431, 1.667 µM): 38%
- target mRNA inhibition (A431, 5 µM): 51% and 50%
- target mRNA inhibition (A431, 15 µM): 61%
- target mRNA inhibition (SH-SY5Y, 0.062 µM): 15%
- target mRNA inhibition (SH-SY5Y, 0.185 µM): 27%
- target mRNA inhibition (SH-SY5Y, 0.556 µM): 52%
- target mRNA inhibition (SH-SY5Y, 1.667 µM): 63%
- target mRNA inhibition (SH-SY5Y, 5 µM): 79%
- target mRNA inhibition (SH-SY5Y, 15 µM): 92%

Sequence: ACACCACAAGCCAAACG (sugars e2 k2 d8 k2 e3, PS)
- target mRNA inhibition (HepG2, 4 µM): 27%

Sequence: CACTACAGGTACTTTAA (sugars e2 k2 d9 k2 e2, PS)
- target mRNA inhibition (HepG2, 5 µM): 38%

Sequence: TTTTTCATGGACCACCA (sugars e3 k2 d7 k2 e3, PS)
- target mRNA inhibition (HepG2, 3 µM): 76%

Sequence: ATAGCCTCATAATAAGT (sugars e2 k2 d9 k2 e2, PS)
- target mRNA inhibition (HepG2, 5 µM): 27%

Sequence: GTTTAATGTTTATCAGGATA (sugars e5 d10 e5, PS)
- target mRNA inhibition (HepG2, 0.1875 µM): 15%
- target mRNA inhibition (HepG2, 0.75 µM): 37%
- target mRNA inhibition (HepG2, 3 µM): 70%
- target mRNA inhibition (HepG2, 5 µM): 71%
- target mRNA inhibition (HepG2, 12 µM): 88%
